Source: ChEMBL document CHEMBL3244025, “Carbocyclic arabinosyladenine, an adenosine deaminase resistant antiviral agent” (J Med Chem, 1977)
Blank lines part the entries; values can stand above or below the compound they belong to.

Tests used:
P388 = assay: Cytotoxicity against mouse P388 cells after 72 hrs by hemocytometric analysis; format: functional
[1] = Cytotoxicity against human Hep2 cells; format: cell-based; conditions: hep-2
[2] = Stability of the compound assessed as calf intestinal adenosine deaminase type 3-mediated deamination; format: ADME, Bos taurus; conditions: cattle
Human alphaherpesvirus 1 = assay: Antiviral activity against Herpes simplex virus type 1 HF infected in human Hep2 cells assessed as inhibition of virus-induced cytopathogenic effect; format: functional, HEp-2
[3] = Stability of the compound assessed as calf intestinal adenosine deaminase type 3-mediated deamination in presence of C-ara-A; format: ADME, Bos taurus; conditions: cattle

SMILES: Nc1ncnc2c1ncn2[C@@H]1C[C@H](CO)[C@@H](O)[C@@H]1O (racemic)
LD50 (P388): 1 ×10⁻⁵ M
Activity [1]: 9 µg/mL
Stability [2]: Stable
MED50 (Human alphaherpesvirus 1): 2.8 µg/mL

Stability [3]: Unstable
SMILES: Nc1ncnc2c1ncn2[C@@H]1O[C@H](CO)[C@@H](O)[C@H]1O [ADENOSINE]

SMILES: Nc1ncnc2c1ncn2[C@@H]1O[C@H](CO)[C@@H](O)[C@@H]1O [VIDARABINE]
LD50 (P388): 1 ×10⁻⁵ M
Stability [2]: Unstable
Stability [3]: Unstable
